# Source: patent publication US20130295672A1, “STEM CELL CULTURE MEDIA AND METHODS” (CONSEJO SUPERIOR DE INVESTIGACIONES CIENTÍFICAS, priority 2010, published 2013)
# How the values were obtained:
# Format in all cases: cell-based, human
# [1] = MTS assay (CellTiter AQueous One Solution Cell Proliferation Assay), hASC viability/growth; conditions: human, hASC cells; no APRIL/BAFF; control 100%; read-out: basal hASC growth in MTS assay with inhibitor added to medium
# Description: (§1) FIG. 2. APRIL and BAFF enhance hASC viability and proliferation. (A): Cell viability was assessed by the CellTiter AQueous One Solution Cell Proliferation Assay (Promega, Madison, Wis.) according to manufacturer's protocols. hASC (3.5×10^3 cells/well) were cultured for 6 days in 96-well plates with 100 ng/ml APRIL or BAFF. Absorbance (OD 490 nm) was measured in an ELISA plate reader (n=at least three experiments). Values were normalized to the absorbance of cells cultured without stimuli (100%). (B): Histograms show cell proliferation measured by a […] BrdU incorporation assay. hASC were cultured in p60 plates with 100 ng/ml APRIL or BAFF; BrdU (20 μM) was added for the last three days. At day 6, BrdU incorporation was detected by flow cytometry using an anti-BrdU antibody. Numerals indicate percentage of cells positive for BrdU and, therefore, actively proliferating. Cell viability was assessed by the CellTiter AQueous One Solution Cell Proliferation Assay (Promega, Madison, Wis.) according to manufacturer's protocols. hASC (3.5×10^3 cells/well) were cultured for 6 days in 96-well plates with 100 ng/ml APRIL or BAFF. Absorbance (OD 490 nm) was measured in an ELISA plate reader (n=at least three experiments). Values were normalized to the absorbance of cells cultured without stimuli (100%). Additionally, cell proliferation was measured by a colorimetric BrdU incorporation assay. hASC were cultured in p60 plates with 100 ng/ml APRIL or BAFF; BrdU (20 μM) was added for the last three days. At day 6, BrdU incorporation was detected by flow cytometry using an anti-BrdU antibody. Three independent MTS and BrdU assays were performed and triplicates included for each condition.
# hASC [2] = assay: as above; conditions: for hASC growth in MTS assay, considering basal growth 100%: 100 ng/ml, 6 days in culture, normalized to cells without stimuli (100%); for promotion of cell growth when ERK was inhibited: with ERK inhibitor U0126, effect kept when PI3K was inhibited
# Description: as §1
# hASC [3] = assay: BrdU incorporation assay by flow cytometry, hASC proliferation; conditions: 100 ng/ml, day 6, BrdU for the last three days; control 13%
# Description: as §1, with “Additionally, cell proliferation was measured by a colorimetric BrdU incorporation assay. hASC were cultured in p60 plates with 100 ng/ml APRIL or BAFF; BrdU (20 μM) was added for the last three days.” left out, “Three independent MTS and BrdU assays were performed and triplicates included for each condition.” left out
# Akt = assay: Western blot phosphorylation kinetics in stimulated hASC: Akt; conditions: 100 ng/ml, 10-120 min
# Description: (§2) FIG. 3. APRIL and BAFF-mediated signaling in hASC. hASC were stimulated with 100 ng/ml APRIL or BAFF (10, 30, 60, 120 min, 37° C.), placed on ice, washed with ice-cold PBS, and lysed with cell lysis buffer (Roche, Indianapolis, Ind.). Extracts were quantified by absorbance, resolved in SDS-PAGE and analyzed by immunoblot. Antibodies used were anti-phospho-Akt (Ser473), -Akt, -phospho-ERK1/2 (Thr202/Tyr204), and -ERK1/2) (BD Bioscience); secondary antibodies were horseradish peroxidase-conjugated bovine anti-rabbit and goat anti-mouse IgG. (B): Histograms show cell proliferation measured by BrdU incorporation as in (FIG. 2B), with addition of the ERK inhibitor U0126 (2.5 μM; Sigma) or the PI3K inhibitor LY294002 (10 μM; Calbiochem) to the culture on days 0 and 3. […]
# (§3) hASC were stimulated with 100 ng/ml APRIL or BAFF (10, 30, 60, 120 min, 37° C.), placed on ice, washed with ice-cold PBS, and lysed with cell lysis buffer (Roche, Indianapolis, Ind.). Extracts were quantified by absorbance, resolved in SDS-PAGE and analyzed by immunoblot. […]
# (§4) Plated hASC (1.5×10^4 cells/cm2) were stimulated with APRIL or BAFF (100 ng/ml) and lysed with lysis buffer (Roche) with protease and phosphatase inhibitors. Proteins in extracts were quantified by absorbance with the BCA protein assay kit (Pierce), and equal amounts of protein homogenate resolved in SDS-PAGE, and transferred to PVDF membranes (Millipore). […]
# ERK1/2 = assay: Western blot phosphorylation kinetics in stimulated hASC: ERK1/2; conditions: 100 ng/ml, 10-120 min
# Description: as §2, §3, §4
# JNK, IκBα or p38 = assay: Western blot phosphorylation kinetics in stimulated hASC: JNK, IκBα, p38
# PBMC proliferation = assay: Immunosuppression assay: proliferation of activated CFSE-labeled PBMC with allogeneic hASC; conditions: 100 ng/ml, day 5
# Description: FIG. 4. Modulation of APRIL and BAFF in hASC. Immunosuppressive effect (A): hASC cells were cultured with 100 ng/ml APRIL (light grey bar), BAFF (dark grey bar) or no stimulus (white bar) and then stimulated with 1 μg/ml LPS or poly I:C. […] Data were acquired using a FACScalibur cytometer and analyzed using FCAP array software (BD Bioscience). (B): Immunosupression assay: Allogeneic hASCs were cultured with activated CFSE labelled PBLs at a ratio of 1:25 (hASC: PBLs) in the presence or absence of BAFF or APRIL (100 ng/ml). After 5 days cells were harvested, analyzed by flow cytometry in a FACScalibur cytometer (BD Bioscience) and acquired for CFSE. […]
# For CFSE labeling, freshly purified PBMC (10-20×106) were washed extensively to remove FBS, resuspended in 200 μl of a 10 μM CFSE solution (Sigma), and incubated with constant shaking (37° C., 10 min) Cells were washed and cultured overnight, and one aliquot was used to set up and control FL-1 voltage for CFSE in the cytometer. […] At day 5, PBMC were harvested and cell proliferation was determined according to loss of CFSE in the FL-1 channel. Data were analyzed using Cellquest-Pro software on gated lymphocytes (based on forward scatter/side scatter properties). The percentage of proliferating lymphocytes was calculated by gating in the region (M1) of the FL-1 channel corresponding to the last 48 h of culture ([…]). […]
# [4] = tested on: indoleamine 2,3-dioxygenase (IDO); assay: IDO induction in hASC; conditions: BAFF/APRIL activation of hASC
# [5] = tested on: HLA-I, HLA-II, CD80 and CD86 expression; assay: Flow cytometry of hASC activation molecules; conditions: APRIL or BAFF activation
# Description: hASCs were harvested, stained with appropriate fluorochrome-coupled antibodies and measured by flow cytometry (BD FACS Calibur). Data were analyzed using the FlowJo program (TreeStar, Ashland, Oreg.).
# [6] = tested on: APRIL and BAFF secretion in hASC; assay: ELISA of APRIL and BAFF concentrations in hASC medium
# Description: FIG. 4. Modulation of APRIL and BAFF in hASC. Immunosuppressive effect (A): hASC cells were cultured with 100 ng/ml APRIL (light grey bar), BAFF (dark grey bar) or no stimulus (white bar) and then stimulated with 1 μg/ml LPS or poly I:C. […] Data were acquired using a FACScalibur cytometer and analyzed using FCAP array software (BD Bioscience). (B): Immunosupression assay: Allogeneic hASCs were cultured with activated CFSE labelled PBLs at a ratio of 1:25 (hASC: PBLs) in the presence or absence of BAFF or APRIL (100 ng/ml). After 5 days cells were harvested, analyzed by flow cytometry in a FACScalibur cytometer (BD Bioscience) and acquired for CFSE. Percentage of proliferating cells (relative to PBLs alone) in the last two generations is shown. Mean and standard deviation of experiments with 6 different buffy coats are represented. Buffy coats were provided by the National Transfusion Centre of the Comunidad Autónoma of Madrid. PBLs were isolated by density centrifugation gradient using Ficollplaque Plus (GE Healthcare Biosciences AB, Uppsala) (C): hASC cells were cultured with IFNγ. Supernatants were collected five days later. […] IL-6 and IL-8 concentration in the medium after 48 h, was measured by the Cytometric Bead Array (CBA) immunoassay (BD Bioscience) following manufacturer instructions. Data were acquired using a FACScalibur cytometer and analyzed using FCAP array software (BD Bioscience). […] Supernatants were collected five days later. APRIL and BAFF concentrations in the medium were determined by ELISA (R&D Systems for BAFF, Bender MedSystem for APRIL).
# [7] = 10, 30, 100 ng/ml, supernatants after five days
molecule,measurement,setting,value
"O=c1cc(N2CCOCC2)oc2c(-c3ccccc3)cccc12 [LY294002, reference compound]",viability at 6 days,[1],60.3%
"N#CC(=C(/N)Sc1ccccc1N)/C(C#N)=C(\N)Sc1ccccc1N [U0126, reference compound]","decrease in basal hASC growth (MTS assay), result in words","hASC [2]; inhibitor added to medium, no APRIL/BAFF",but not ERK inhibitor
APRIL: recombinant protein from R&D Systems; TNF ligand binding BCMA and TACI,"hASC growth in MTS assay, considering basal growth 100%",hASC [2],114%
same,promotion of cell growth when ERK was inhibited,hASC [2],did not promote cell growth
same,percentage of BrdU-positive cells,hASC [3],27.5%
same,phosphorylation of Akt,Akt,induced rapid phosphorylation
same,phosphorylation of ERK1/2,ERK1/2,induced rapid phosphorylation
same,"phosphorylation of JNK, IκBα or p38","JNK, IκBα or p38",no clear effect
same,effect on ability of hASC to suppress PBMC proliferation,PBMC proliferation,did not alter
same,induction of IDO,[4],did not induce
same,"effect on hASC expression of HLA-I, HLA-II, CD80 and CD86",[5],do not affect
"BAFF: recombinant protein from R&D Systems; TNF ligand binding BCMA, TACI and BAFF-R","hASC growth in MTS assay, considering basal growth 100%",hASC [2],140%
same,promotion of cell growth when ERK was inhibited,hASC [2],did not promote cell growth
same,percentage of BrdU-positive cells,hASC [3],29.4%
same,phosphorylation of Akt,Akt,induced rapid phosphorylation
same,phosphorylation of ERK1/2,ERK1/2,induced rapid phosphorylation
same,"phosphorylation of JNK, IκBα or p38","JNK, IκBα or p38",no clear effect
same,effect on ability of hASC to suppress PBMC proliferation,PBMC proliferation,did not alter
same,induction of IDO,[4],did not induce
same,"effect on hASC expression of HLA-I, HLA-II, CD80 and CD86",[5],do not affect
CXCL12: cytokine from Peprotech; enhances APRIL secretion,APRIL secretion by hASC,[6]; [7],preferentially enhances APRIL
poly I:C [reference compound],induction of APRIL or BAFF secretion by TLR ligand,[6]; hASC activated with LPS or poly I:C,Neither ligand induced
"IFN-γ: cytokine from Peprotech; inducer of BAFF (protein, UniProt P01579 24-161, looked up) Interferon gamma: QDPYVKEAENLKKYFNAGHSDVADNGTLFLGILKNWKEESDRKIMQSQIVSFYFKLFKNFKDDQSIQKSVETIKEDMNVKFFNSNKKKRDDFEKLTNYSVTDLNVQRKAIHELIQVMAELSPAAKTGKRKRSQMLFRG",BAFF secretion by hASC,[6]; [7],promotes BAFF secretion
